Experimental data from US9624208B2, “Benzoxazolinone compounds with selective activity in voltage-gated sodium channels” (Merck Sharp & Dohme Corp., priority 2012, dated 2017).
Like-named read-outs stand apart in the source and are kept apart here.

What was measured:
[1] = biological target: T1, human Nav1.5 (Homo sapiens, UniProt Q14524); experiment: PatchXpress sodium current measurement, inactivated state block, Nav1.5; assay type: cell-based; conditions: determined by PatchXpress measurement, HEK 293 cells
T1 construct: expressed in transfected cells
T1 sequence (Q14524 whole entry): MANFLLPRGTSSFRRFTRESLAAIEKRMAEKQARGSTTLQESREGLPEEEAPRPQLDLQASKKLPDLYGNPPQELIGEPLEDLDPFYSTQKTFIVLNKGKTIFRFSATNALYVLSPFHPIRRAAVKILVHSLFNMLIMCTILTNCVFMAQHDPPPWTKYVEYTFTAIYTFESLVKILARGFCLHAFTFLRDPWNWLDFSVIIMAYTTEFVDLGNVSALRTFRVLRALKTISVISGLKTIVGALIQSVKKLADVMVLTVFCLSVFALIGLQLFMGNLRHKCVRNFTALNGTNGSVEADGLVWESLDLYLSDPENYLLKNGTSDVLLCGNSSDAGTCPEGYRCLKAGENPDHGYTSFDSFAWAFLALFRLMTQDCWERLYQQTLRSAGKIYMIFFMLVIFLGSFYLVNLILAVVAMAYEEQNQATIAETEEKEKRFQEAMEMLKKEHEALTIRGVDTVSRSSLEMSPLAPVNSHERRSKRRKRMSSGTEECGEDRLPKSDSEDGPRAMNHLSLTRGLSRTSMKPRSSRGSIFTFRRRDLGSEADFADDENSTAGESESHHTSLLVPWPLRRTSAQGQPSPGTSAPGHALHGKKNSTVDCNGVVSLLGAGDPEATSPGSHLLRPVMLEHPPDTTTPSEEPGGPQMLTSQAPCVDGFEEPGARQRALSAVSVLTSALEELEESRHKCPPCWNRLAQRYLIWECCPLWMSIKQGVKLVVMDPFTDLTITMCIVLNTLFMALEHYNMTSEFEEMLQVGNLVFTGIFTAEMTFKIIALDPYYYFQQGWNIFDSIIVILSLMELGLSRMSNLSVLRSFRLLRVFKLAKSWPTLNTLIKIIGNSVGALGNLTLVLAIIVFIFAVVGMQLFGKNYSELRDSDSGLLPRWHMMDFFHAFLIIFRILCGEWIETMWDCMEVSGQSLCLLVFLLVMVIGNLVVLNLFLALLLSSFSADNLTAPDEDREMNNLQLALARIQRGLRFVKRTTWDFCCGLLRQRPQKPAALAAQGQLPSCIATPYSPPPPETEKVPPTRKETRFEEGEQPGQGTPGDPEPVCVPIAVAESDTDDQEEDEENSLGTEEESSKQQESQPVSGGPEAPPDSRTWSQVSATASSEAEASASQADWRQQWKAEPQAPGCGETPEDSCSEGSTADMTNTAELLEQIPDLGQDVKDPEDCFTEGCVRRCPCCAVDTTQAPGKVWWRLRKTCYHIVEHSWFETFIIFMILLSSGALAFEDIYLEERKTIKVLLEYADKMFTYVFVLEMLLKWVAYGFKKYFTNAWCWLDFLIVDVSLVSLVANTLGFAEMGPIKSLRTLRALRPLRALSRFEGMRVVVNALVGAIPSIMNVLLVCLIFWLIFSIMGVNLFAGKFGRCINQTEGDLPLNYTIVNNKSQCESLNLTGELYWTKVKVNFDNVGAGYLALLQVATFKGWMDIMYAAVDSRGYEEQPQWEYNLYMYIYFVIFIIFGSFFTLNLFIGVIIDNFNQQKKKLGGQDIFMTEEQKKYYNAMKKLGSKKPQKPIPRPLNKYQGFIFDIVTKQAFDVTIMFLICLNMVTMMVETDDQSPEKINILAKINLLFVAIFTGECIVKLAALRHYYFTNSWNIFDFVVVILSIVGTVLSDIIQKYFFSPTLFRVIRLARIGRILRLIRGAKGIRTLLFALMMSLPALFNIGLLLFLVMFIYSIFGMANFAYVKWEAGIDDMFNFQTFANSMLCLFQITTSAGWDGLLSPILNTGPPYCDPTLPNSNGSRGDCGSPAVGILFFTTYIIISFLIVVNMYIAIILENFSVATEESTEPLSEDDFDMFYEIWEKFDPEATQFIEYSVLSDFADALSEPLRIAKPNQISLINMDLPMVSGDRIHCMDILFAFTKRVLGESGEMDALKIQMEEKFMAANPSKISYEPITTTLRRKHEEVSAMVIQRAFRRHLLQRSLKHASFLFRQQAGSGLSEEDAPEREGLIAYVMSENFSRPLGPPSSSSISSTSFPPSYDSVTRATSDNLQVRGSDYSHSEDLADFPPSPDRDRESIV
Method in brief: (§1)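 HEK293 cells stably expressing channel; automated patch clamp at 22 °C, double-pulse protocol: hold 20 mV below V½ inactivation, 8000 ms prepulse 7 mV above V½, 2 ms step to −120 mV, 20 ms test pulse to −20 mV. CsF-based internal (pH 7.3), NMDG/40 mM NaCl external (pH 7.5). Rundown-corrected % inhibition (≥2 concentrations) fitted to Hill equation for IC50.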

[2] = biological target: T2, human Nav1.7 (Homo sapiens, UniProt Q15858); experiment: PatchXpress sodium current measurement, inactivated state block, Nav1.7; assay type: cell-based; conditions: channels stably expressed in HEK 293 cells, double-pulse protocol, 22° C.
T2 construct: expressed in transfected cells
T2 sequence (Q15858 whole entry): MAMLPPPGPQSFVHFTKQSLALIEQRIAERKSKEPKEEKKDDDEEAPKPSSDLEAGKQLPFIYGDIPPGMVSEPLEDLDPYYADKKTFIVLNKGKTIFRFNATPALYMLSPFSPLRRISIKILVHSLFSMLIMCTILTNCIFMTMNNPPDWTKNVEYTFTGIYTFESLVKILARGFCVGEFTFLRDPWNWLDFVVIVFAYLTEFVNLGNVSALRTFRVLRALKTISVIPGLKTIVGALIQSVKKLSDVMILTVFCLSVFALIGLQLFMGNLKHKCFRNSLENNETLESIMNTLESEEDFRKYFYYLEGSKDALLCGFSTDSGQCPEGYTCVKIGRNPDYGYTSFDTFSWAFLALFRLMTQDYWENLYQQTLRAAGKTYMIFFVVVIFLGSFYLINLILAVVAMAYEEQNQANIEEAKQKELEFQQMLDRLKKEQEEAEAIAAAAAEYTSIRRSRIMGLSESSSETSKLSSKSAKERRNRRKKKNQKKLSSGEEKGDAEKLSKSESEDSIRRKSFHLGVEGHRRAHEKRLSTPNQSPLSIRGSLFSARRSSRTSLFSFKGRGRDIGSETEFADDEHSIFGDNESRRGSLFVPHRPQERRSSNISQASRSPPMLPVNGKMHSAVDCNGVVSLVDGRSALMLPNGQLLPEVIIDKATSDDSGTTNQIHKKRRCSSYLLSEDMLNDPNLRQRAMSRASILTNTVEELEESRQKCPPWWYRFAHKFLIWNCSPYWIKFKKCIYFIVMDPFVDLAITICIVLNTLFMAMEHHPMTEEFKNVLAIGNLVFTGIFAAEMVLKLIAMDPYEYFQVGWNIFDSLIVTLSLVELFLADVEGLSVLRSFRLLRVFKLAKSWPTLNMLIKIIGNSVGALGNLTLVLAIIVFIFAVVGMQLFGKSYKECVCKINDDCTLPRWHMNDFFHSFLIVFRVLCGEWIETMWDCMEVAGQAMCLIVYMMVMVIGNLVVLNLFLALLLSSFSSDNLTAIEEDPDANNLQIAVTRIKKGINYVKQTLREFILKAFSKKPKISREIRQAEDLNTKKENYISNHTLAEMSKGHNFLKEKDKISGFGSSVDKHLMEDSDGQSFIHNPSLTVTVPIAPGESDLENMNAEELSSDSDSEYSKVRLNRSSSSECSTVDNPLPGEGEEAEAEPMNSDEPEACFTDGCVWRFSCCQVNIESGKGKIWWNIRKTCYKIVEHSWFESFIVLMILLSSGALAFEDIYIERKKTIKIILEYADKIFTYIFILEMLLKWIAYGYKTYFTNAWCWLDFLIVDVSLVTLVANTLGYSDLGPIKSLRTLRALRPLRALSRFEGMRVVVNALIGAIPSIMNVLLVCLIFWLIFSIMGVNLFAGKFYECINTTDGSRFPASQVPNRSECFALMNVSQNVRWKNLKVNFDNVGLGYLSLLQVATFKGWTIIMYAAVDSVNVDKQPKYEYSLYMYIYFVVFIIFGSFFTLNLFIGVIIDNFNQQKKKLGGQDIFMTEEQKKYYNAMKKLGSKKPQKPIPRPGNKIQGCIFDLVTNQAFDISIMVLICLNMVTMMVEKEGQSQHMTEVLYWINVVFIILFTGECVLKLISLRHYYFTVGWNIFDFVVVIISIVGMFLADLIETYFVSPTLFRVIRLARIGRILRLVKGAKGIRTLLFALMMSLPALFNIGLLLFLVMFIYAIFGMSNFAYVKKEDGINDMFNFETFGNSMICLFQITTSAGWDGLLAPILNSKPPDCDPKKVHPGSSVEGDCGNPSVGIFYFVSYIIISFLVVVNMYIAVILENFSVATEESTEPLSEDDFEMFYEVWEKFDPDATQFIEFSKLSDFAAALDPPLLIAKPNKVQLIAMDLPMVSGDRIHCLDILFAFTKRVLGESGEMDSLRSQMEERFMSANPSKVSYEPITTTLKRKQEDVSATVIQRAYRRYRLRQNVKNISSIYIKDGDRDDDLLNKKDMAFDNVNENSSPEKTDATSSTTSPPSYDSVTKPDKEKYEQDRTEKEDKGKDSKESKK
Method in brief: as §1

[3] = read-out: potency for the Nav 1.7 sodium ion channel (1.7=)

Row | IC50 [2, 3] | SMILES | ratio of Nav 1.5:Nav 1.7 potency [1] | IC50 ([2]; potency for the Nav 1.7 sodium ion channel (1.7=))
1 | 152 nM | C[C@H](c1cccc2c1CNCC2)n1c(=O)oc2cc(S(=O)(=O)Nc3cccc(F)n3)ccc21.Cl [Ex2-5, (R)—N-(6-fluoropyridin-2-yl)-2-oxo-3-(1-(1,2,3,4-tetrahydroisoquinolin-8-yl)ethyl)-2,3-dihydrobenzo[d]oxazole-6-sulfonamide hydrochloride] | 316 | 
2 | 16 nM | Cc1cc2c(cc1S(=O)(=O)Nc1cccc(F)n1)oc(=O)n2[C@H](C)c1cccc(C)c1C#C[C@H]1CCCC[C@H]1N [Ex21-26, 3-[(1R)-1-(2-{[(1R,2R)-2-aminocyclohexyl]-ethynyl}-3-methylphenyl)ethyl]-N-(6-fluoropyridin-2-yl)-5-methyl-2-oxo-2,3-dihydro-1,3-benzoxazole-6-sulfonamide] | 192 | 
3 | 154 nM | Cc1c(CCN)cccc1[C@@H](C)n1c(=O)oc2cc(S(=O)(=O)Nc3cccc(F)n3)c(F)cc21 [Ex19-12] | 195 | 
4 | 127 nM | C[C@H](c1cccc(C2=CCNCC2)c1)n1c(=O)oc2cc(S(=O)(=O)Nc3cccc(F)n3)c(F)cc21 [Ex7-10, 5-fluoro-N-(6-fluoropyridin-2-yl)-2-oxo-3-{(1R)-1-[3-(1,2,3,6-tetrahydropyridin-4-yl)phenyl]ethyl}-2,3-dihydro-1,3-benzoxazole-6-sulfonamide] | 331 | 
5 | 1140 nM | Cl.O=c1oc2cc(S(=O)(=O)Nc3cccc(F)n3)c(F)cc2n1Cc1cccc2c1CNCC2F (racemic) [Ex5-9, (+/−)-5-Fluoro-3-((4-fluoro-1,2,3,4-tetrahydroisoquinolin-8-yl)methyl)-N-(6-fluoropyridin-2-yl)-2-oxo-2,3-dihydrobenzo[d]oxazole-6-sulfonamide hydrochloride] | 26 | 
6 | 14 nM | C[C@H](c1ccccc1C#C[C@H]1CCCC[C@H]1N)n1c(=O)oc2cc(S(=O)(=O)Nc3cccc(F)n3)c(F)cc21 [Ex8-3, 3-[(1R)-1-(2-{[(1R,2R)-2-aminocyclohexyl]ethynyl}phenyl)ethyl]-5-fluoro-N-(6-fluoropyridin-2-yl)-2-oxo-2,3-dihydro-1,3-benzoxazole-6-sulfonamide] | 2000 | 
7 | 55 nM | C[C@H](c1cccc(CCCN)c1)n1c(=O)oc2cc(S(=O)(=O)Nc3cccc(F)n3)c(F)cc21 [Ex22-1, 3-{(1R)-1-[3-(3-aminopropyl)phenyl]ethyl}-5-fluoro-N-(6-fluoropyridin-2-yl)-2-oxo-2,3-dihydro-1,3-benzoxazole-6-sulfonamide] | 380 | 
8 |  | C[C@H](c1ccccc1C1=C[C@@H]2CC[C@H](C1)N2)n1c(=O)oc2cc(S(=O)(=O)Nc3cccc(F)n3)c(F)cc21 [Ex7-8, 3-[(1R)-1-{2-[(1S,5R)-8-azabicyclo[3.2.1]oct-2-en-3-yl]phenyl}ethyl]-5-fluoro-N-(6-fluoropyridin-2-yl)-2-oxo-2,3-dihydro-1,3-benzoxazole-6-sulfonamide] | 681 | 81 nM
9 | 118 nM | C[C@H](c1cccc(C#CC2CCCC2N)c1)n1c(=O)oc2cc(S(=O)(=O)Nc3cccc(F)n3)c(F)cc21 (stereo partly drawn) [Ex21-18, 3-[(1R)-1-{3-[(2-aminocyclopentyl)ethynyl]phenyl}ethyl]-5-fluoro-N-(6-fluoropyridin-2-yl)-2-oxo-2,3-dihydro-1,3-benzoxazole-6-sulfonamide] | 64 | 
10 | 407 nM | C[C@H](c1cccc(C#CC2CCCCN2)c1)n1c(=O)oc2cc(S(=O)(=O)Nc3cccc(F)n3)c(F)cc21 (stereo partly drawn) [Ex21-9, 5-fluoro-N-(6-fluoropyridin-2-yl)-2-oxo-3-{(1R)-1-[3-(piperidin-2-ylethynyl)phenyl]ethyl}-2,3-dihydro-1,3-benzoxazole-6-sulfonamide] | 74 | 
11 | 150 nM | C[C@H](c1ccccc1N1CCNCC1)n1c(=O)oc2cc(S(=O)(=O)Nc3cccc(F)n3)c(F)cc21 [Ex23-1, 5-fluoro-N-(6-fluoropyridin-2-yl)-2-oxo-3-{(1R)-1-[2-(piperazin-1-yl)phenyl]ethyl}-2,3-dihydro-1,3-benzoxazole-6-sulfonamide] | 200 | 
12 | 258 nM | C[C@H](c1cccc(C#CC2(N)CC2)c1)n1c(=O)oc2cc(S(=O)(=O)Nc3cccc(F)n3)c(F)cc21 [Ex21-12, 3-[(1R)-1-{3-[(1-aminocyclopropyl)ethynyl]phenyl}ethyl]-5-fluoro-N-(6-fluoropyridin-2-yl)-2-oxo-2,3-dihydro-1,3-benzoxazole-6-sulfonamide] | 116 | 
